# “And” between values parts separate entries of the source, which are not always exact repeats. Identical values can stand only once. Like-named read-outs stand apart in the source and are kept apart here.
# Key:
# [1] = test system: A431 cells; test: Cellular growth inhibition (sulforhodamine B)
# Protocol: (§3) Human A431, BT474, SKBR3, SKOV3, SW620, H1975 and HT29 carcinoma cells in log phase exponential growth in alpha minimal essential media (αMEM) containing 5% fetal bovine serum (FBS), were harvested by trypsinisation (1× trypsin/EDTA, Gibco Brl), counted, and seeded into 96 well plates (Nunc) at cell densities ranging from 800-1500 cells/well. Half of the cell samples were seeded into plates that were pre-equilibrated and held in an anoxic environment (90% N2, 5% H2, 5% CO2, 37° Q Anaerobic chamber, Coy Laboratory Products). […] At the end of this period the anoxic plates were recovered from the anaerobic camber and held under normoxia in a standard CO2 incubator (37° C.) for 20 hours. All plates were washed free of compound and cells were allowed to proliferate for a further 4 days in αMEM containing 5% FBS+antibiotics. Cells were fixed in trichloroacteic acid (30 min), washed and stained with sulforhodamine B (SRB, 60 min) prior to washing in acidified water. SRB was solubilised and absorption read at 450 nm to calculate cell densities. Inhibition of proliferation was calculated relative to untreated control wells.
# (§4) Human A431, H1975 and SKOV3 carcinoma cells in log phase exponential growth in alpha minimal essential media (αMEM) containing 5% fetal bovine serum (FBS), were harvested by trypsinisation (1× trypsin/EDTA, Gibco Brl), counted, and seeded into 96 well plates (Nunc) at cell densities ranging from 800-1500 cells/well. Half of the cell samples were seeded into plates that were pre-equilibrated and held in an anoxic environment (90% N2, 5% H2, 5% CO2, 37° C.; Anaerobic chamber, Coy Laboratory Products). […] At the end of this period the anoxic plates were recovered from the anaerobic camber and held under normoxia in a standard CO2 incubator (37° C.) for 20 hours. All plates were washed free of compound and cells were allowed to proliferate for a further 4 days in αMEM containing 5% FBS+antibiotics. Cells were fixed in trichloroacteic acid (30 min), washed and stained with sulforhodamine B (SRB, 60 min) prior to washing in acidified water. SRB was solubilised and absorption read at 450 nm to calculate cell densities. Inhibition of proliferation was calculated relative to untreated control wells.
# [2] = test system: SW620 cells; test: Cellular growth inhibition (sulforhodamine B); assay type: cell-based, Human; conditions: Table 3
# Protocol: as §3
# [3] = test system: Erk1/2; conditions: EGF-stimulated A431 cells
# [4] = molecular target: T1, erbB1 (Homo sapiens, UniProt P00533); test: Inhibition of erbB1 autophosphorylation in EGF-stimulated intact A431 cells (Western blot)
# T1 sequence (P00533 25-1210): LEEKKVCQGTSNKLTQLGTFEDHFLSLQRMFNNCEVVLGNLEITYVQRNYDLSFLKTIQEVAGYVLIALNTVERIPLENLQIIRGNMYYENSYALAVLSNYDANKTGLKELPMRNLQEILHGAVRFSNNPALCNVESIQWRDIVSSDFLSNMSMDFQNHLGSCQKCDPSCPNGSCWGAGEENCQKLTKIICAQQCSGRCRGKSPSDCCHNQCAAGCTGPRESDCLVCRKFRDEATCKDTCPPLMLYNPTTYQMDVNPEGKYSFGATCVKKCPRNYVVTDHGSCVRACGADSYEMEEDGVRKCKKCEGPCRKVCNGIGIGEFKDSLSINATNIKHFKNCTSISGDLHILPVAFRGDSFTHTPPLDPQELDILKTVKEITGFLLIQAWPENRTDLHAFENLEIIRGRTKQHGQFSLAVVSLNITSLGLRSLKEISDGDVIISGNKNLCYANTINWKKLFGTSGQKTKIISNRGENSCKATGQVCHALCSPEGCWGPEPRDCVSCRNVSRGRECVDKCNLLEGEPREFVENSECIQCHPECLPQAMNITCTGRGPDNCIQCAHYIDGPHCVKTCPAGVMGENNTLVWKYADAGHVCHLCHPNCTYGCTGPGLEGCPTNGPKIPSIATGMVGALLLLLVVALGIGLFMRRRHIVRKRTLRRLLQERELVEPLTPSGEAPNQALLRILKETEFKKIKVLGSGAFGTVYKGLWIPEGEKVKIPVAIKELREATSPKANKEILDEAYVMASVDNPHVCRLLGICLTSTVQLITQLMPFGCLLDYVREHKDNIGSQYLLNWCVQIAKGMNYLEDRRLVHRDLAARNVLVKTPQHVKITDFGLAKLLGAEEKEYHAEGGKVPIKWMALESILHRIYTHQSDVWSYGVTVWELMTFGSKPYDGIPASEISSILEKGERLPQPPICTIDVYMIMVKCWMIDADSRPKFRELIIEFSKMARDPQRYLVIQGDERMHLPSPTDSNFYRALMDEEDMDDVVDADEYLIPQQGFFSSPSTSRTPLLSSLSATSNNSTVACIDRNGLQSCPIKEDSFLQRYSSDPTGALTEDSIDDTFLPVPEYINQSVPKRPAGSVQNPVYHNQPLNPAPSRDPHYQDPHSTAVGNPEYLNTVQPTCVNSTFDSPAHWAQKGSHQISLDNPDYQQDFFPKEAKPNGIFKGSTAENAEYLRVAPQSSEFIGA
# [5] = test system: SKOV3 xenografts; test: In vivo efficacy in SKOV3 xenografts; parameters: species or system mice
# Protocol: (§1) Specific pathogen-free homozygous female NIH-III nude mice (Charles River Laboratories, Wilmington, Mass.) were inoculated subcutaneously with a single cell suspension of SKOV3 cells (1×10^7 cells/100 μL; right flank). When SKOV3 tumour xenografts were established (typically 50-65 days) mice were randomized to treatment groups. All compounds were prepared in lactate buffer (pH4). Mice were dosed by intraperitoneal injection (0.01-0.03 ml/g) using the stated schedules and dose levels. Tumour size and body weights were measured at regular intervals. Tumour volume was calculated as π (length×width^2)/6. […] Differences in RTV^4 were tested for statistical difference by Mann Whitney U test using SigmaStat v3.5.
# as §1, with “Compounds 42 and 161” for “All compounds”
# [6] = molecular target: T1, erbB1; test: Cellular erbB1 inhibition: irreversibility wash-out assay in A431 cells
# [7] = molecular target: T2, erbB2 (Homo sapiens, UniProt P04626); test: Isolated enzyme inhibition (Invitrogen Z′-LYTE kinase assay); assay type: biochemical; conditions: 10 μM ATP, duplicate
# T2 sequence (P04626 23-1255): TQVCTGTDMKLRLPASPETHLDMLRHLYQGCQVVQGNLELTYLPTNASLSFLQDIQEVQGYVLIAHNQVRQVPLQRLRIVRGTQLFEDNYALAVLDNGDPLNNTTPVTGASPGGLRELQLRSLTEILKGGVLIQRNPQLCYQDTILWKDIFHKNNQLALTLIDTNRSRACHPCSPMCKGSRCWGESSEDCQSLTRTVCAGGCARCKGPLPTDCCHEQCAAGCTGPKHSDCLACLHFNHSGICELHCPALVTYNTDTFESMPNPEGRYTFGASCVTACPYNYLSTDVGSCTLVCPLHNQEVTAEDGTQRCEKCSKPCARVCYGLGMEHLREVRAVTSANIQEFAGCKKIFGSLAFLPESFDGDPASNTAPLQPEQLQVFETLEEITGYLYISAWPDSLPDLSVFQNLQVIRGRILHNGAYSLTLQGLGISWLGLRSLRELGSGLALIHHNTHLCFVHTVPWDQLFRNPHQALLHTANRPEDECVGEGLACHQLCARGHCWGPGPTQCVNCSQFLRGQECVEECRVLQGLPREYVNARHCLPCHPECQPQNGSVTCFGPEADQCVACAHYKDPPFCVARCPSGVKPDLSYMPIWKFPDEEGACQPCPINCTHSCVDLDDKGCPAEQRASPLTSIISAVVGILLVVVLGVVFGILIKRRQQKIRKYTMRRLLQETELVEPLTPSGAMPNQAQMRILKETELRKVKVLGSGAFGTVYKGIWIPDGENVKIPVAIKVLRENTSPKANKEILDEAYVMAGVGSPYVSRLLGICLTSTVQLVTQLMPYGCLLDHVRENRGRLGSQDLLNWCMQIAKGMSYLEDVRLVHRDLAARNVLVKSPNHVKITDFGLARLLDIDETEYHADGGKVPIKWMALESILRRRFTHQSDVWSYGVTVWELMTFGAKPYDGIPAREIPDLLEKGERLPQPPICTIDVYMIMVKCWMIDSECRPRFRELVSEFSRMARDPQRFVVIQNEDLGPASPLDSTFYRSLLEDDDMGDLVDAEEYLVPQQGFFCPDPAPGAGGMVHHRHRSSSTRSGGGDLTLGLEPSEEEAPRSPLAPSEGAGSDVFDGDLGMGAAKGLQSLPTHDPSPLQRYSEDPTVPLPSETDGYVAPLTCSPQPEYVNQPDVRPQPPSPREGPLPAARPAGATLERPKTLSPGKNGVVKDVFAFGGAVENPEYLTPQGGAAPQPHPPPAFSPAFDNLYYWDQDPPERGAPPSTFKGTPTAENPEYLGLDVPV
# Protocol: (§2) The compounds of Table 1 were tested for their ability to inhibit erbB1, erbB1^T790M, erbB2 and erbB4 in an isolated enzyme assay. This assay utilises synthetic FRET-capable peptide substrates. Phosphorylation of these substrates protects them from cleavage by a development reagent, leaving their FRET-capabilities intact. […] As a further consideration, for compounds capable of irreversible inhibition of an enzyme, the IC50 reflects both reversible and irreversible binding to the enzyme.
# [8] = molecular target: erbB4 (Homo sapiens, UniProt Q15303); test: as above; assay type: biochemical; conditions: 10 μM ATP, duplicate
# erbB4, sequence (Q15303 26-1308): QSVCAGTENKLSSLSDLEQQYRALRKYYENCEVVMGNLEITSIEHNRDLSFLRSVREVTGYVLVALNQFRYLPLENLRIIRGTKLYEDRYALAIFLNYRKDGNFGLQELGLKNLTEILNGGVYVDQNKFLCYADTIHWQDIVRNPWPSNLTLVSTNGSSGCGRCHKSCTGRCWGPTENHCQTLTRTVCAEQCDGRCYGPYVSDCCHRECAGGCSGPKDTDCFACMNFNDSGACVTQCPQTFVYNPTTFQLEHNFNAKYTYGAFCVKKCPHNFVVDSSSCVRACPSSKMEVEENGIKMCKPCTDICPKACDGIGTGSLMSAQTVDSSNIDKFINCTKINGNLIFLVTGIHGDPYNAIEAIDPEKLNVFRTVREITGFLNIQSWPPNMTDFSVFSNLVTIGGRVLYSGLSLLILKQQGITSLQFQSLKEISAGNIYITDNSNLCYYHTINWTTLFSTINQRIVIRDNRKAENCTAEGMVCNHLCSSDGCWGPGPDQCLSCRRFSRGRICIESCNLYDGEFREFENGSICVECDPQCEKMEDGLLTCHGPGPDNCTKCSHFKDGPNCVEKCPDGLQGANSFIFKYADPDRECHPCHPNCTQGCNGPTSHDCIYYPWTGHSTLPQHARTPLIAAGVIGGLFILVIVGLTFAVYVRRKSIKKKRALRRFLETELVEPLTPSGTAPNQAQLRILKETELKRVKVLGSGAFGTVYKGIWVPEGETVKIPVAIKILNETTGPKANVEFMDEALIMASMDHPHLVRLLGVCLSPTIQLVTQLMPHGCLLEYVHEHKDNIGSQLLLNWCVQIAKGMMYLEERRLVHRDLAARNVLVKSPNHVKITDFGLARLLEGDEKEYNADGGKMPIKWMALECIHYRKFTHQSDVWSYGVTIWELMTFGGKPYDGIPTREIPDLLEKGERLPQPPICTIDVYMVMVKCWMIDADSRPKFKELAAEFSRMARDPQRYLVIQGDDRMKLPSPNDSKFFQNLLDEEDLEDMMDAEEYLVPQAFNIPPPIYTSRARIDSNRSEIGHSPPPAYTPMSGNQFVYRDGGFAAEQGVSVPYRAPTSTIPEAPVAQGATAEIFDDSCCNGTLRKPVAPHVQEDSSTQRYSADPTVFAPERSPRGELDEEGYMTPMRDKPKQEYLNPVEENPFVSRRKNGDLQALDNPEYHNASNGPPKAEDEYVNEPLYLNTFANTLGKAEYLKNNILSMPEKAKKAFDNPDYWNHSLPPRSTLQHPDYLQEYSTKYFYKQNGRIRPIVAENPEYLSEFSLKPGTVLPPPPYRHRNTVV
# Protocol: as §2
# [9] = Plasma and A431 tumour pharmacokinetics of compounds 11 and 20; conditions: NIHIII, mouse, 75 umol/kg
# Protocol: A small piece (˜100 mg) of tissue was placed in biopulveriser well (previously cooled in liquid nitrogen) and reduced to fine powder with a 2-3 strong blows to the stainless steel pestle. The frozen powder was collected in pre-weighed microcentrifuge tube (kept on dry ice). […] The microcentrifuge tubes were spun at 13,000 rpm for 10 min to precipitate the cell debris and proteins. […] The analytes were eluted using a gradient of 0.01% formic acid in acetonitrile (80%)-water (20%) mixture and 0.01% formic acid in water (100%) on Zorbax SB 018, rapid resolution HT 3.0×50 mm, 1.8 micron (Agilent) HPLC column with a flow rate of 0.6 ml/min.
# [10] = test system: A431 xenografts; test: In vivo efficacy in A431 xenografts; conditions: A431 xenografts; for tumour growth inhibition (TGI): q4dx3 at MTD, IP in lactate buffer
# Protocol: as §1, with “CD-1” for “NIH-III”, “A431” for “SKOV3”, “(5×10^6” for “(1×10^7”, “[…];” for “μL;”, “6-10” for “50-65”
# [11] = test system: SKBR3 cells; test: Cellular growth inhibition (sulforhodamine B); assay type: cell-based, Human; conditions: Table 3
# [12] = in vivo; conditions: mouse, plasma, ip, 42 umol/kg
# [13] = in vivo; conditions: female, CD-1 nude, mouse, ip
# [14] = molecular target: T1, erbB1; test: Isolated enzyme inhibition (Invitrogen Z′-LYTE kinase assay); assay type: biochemical; conditions: 10 μM ATP, duplicate
# [15] = Steady state radiolytic reduction by the CO2.− radical with HPLC-MS; assay type: physicochemical; conditions: for Effector release/Prodrug loss: 0.95 reducing equivalents; for Detection of MNA (methyl nitroaromatic) / release of effector following 1-electron reduction: HPLC-MS; for % Loss of prodrug / % Release of effector: HPLC-MS at 0.95 reducing equivalents; for release of effector following 1-electron reduction: steady state radiolysis
# [16] = molecular target: erbB1^T790M (Homo sapiens, UniProt P00533, T790M); test: Isolated enzyme inhibition (Invitrogen Z′-LYTE kinase assay); assay type: biochemical; conditions: 10 μM ATP, duplicate
# erbB1^T790M, sequence (P00533 25-1210 T790M): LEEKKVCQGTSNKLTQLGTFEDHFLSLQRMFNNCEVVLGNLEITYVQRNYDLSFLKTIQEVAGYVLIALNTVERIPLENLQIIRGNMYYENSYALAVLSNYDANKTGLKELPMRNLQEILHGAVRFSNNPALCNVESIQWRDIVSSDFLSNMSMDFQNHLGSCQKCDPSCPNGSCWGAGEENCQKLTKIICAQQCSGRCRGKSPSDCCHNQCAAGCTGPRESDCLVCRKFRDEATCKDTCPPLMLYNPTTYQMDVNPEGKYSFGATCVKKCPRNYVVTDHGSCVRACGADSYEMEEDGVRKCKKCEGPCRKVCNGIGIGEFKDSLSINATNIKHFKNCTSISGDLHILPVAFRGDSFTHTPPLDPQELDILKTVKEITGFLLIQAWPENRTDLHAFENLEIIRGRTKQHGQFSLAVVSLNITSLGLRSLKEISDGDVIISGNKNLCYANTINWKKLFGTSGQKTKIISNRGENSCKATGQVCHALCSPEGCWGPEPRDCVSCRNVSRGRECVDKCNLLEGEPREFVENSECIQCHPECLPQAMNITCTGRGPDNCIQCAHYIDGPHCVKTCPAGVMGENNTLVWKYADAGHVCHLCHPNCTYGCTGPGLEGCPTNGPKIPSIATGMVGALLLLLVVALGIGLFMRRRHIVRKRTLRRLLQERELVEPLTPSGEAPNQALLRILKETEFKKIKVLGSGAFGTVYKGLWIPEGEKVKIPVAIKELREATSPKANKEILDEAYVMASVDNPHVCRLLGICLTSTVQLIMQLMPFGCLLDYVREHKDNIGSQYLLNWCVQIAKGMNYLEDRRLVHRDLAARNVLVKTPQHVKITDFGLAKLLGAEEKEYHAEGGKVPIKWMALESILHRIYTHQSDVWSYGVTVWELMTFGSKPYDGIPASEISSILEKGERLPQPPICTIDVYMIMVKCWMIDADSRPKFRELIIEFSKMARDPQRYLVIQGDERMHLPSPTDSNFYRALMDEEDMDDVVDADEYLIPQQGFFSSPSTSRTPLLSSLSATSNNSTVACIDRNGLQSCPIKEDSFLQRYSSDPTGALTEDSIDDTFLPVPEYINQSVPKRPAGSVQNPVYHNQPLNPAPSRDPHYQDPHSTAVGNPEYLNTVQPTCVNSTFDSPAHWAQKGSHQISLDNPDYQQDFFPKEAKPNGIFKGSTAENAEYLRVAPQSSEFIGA
# [17] = Pulse radiolysis (E(1) and fragmentation rate); assay type: physicochemical; conditions: for E (1)/V (one-electron reduction potential): determined against methylviologen
# [18] = molecular target: T1, erbB1; test: Cellular erbB1 inhibition under oxic and hypoxic conditions in A431 cells; assay type: cell-based; conditions: 1 μM, 4 hour exposure oxic or hypoxic, washed, EGF stimulated
# Protocol: Human A431 epidermoid carcinoma cells were seeded at 400,000 cells/well in a 6 well plate in alpha minimal essential media (αMEM) containing 10% fetal bovine serum, 10 mM D-Glucose and 0.2 mM 2′-deoxycytidine. A431 cells were allowed to attach for 90 minutes under oxic or anoxic conditions, then exposed to test compounds at a concentration of 1 uM for a further 4 hours under oxic or anoxic conditions. The cells were then washed free of test compounds three times using serum free media and then returned to the incubator under oxic conditions overnight. The cells were then stimulated with 100 ng/mL EGF for 15 minutes before the medium was aspirated and the cells were washed with ice-cold PBS.
# [19] = Plasma and A431 tumour pharmacokinetics of compounds 42 and 161
# [20] = test system: H1975 xenografts; test: In vivo efficacy in H1975 xenografts; parameters: species or system mice; conditions: H1975 xenografts, equitoxic dose 133 (42) and 42.2 (161) μmol/kg/dose, q3dx4, IP
# Protocol: as §1, with “H1975” for “SKOV3”, “(5×10^6” for “(1×10^7”, “8-12” for “50-65”, “For growth delay experiments mice were randomized to treatment and tumor volume [π(length×width^2)/6]” for “Tumour size”, “weight” for “weights”, “daily following treatment.” for “at regular intervals. Tumour volume was calculated as π (length×width^2)/6.”
# [21] = test system: H1975 cells; test: Cellular growth inhibition (sulforhodamine B); assay type: cell-based, Human; conditions: Table 9; for IC50: Homo sapiens, NCI-H1975
# Protocol: as §3, §4
# They were then washed free of drug and incubated for a further 4 days, before being stained for cell survival with sulforhodamine B.
# [22] = test system: SKOV3 cells; test: Cellular growth inhibition (sulforhodamine B); assay type: cell-based, Human; conditions: Table 9; for IC50: Homo sapiens, SK-OV-3
# [23] = molecular target: T2, erbB2; test: Inhibition of basal phospho-erbB2 in SKOV3 cells (Western blot); assay type: cell-based; parameters: endogenous in cells; host or cells: SKOV3 human ovarian carcinoma cells; conditions: SKOV3 cells; read-out: cellular erbB2 IC50
# Source text: Values are plotted using SigmaPlot 10.
# [24] = Homo sapiens, A-431, 24 h, read-out: Cellular Growth Inhibition IC50 A431 Oxic
# [25] = Homo sapiens, A-431, read-out: Cellular Growth Inhibition IC50 A431 Anoxic
# [26] = Homo sapiens, SW-620, 24 hour exposure entirely oxic, read-out: Cellular Growth Inhibition IC50 SW620 Oxic
# [27] = Homo sapiens, SW-620, first 4 hours anoxic, read-out: Cellular Growth Inhibition IC50 SW620 Anoxic
# [28] = Homo sapiens, SK-BR-3, 24 hour exposure entirely oxic, read-out: Cellular Growth Inhibition IC50 SKBR3 Oxic
# [29] = Homo sapiens, SK-BR-3, first 4 hours anoxic, read-out: Cellular Growth Inhibition IC50 SKBR3 Anoxic
compound,measurement,setting,value
"CN(C)C/C=C/C(=O)Nc1ccc2ncnc(Nc3cccc(Br)c3)c2c1 [Compound 11, (2E)-N-[4-(3-bromoanilino)-6-quinazolinyl]-4-(dimethylamino)-2-butenamide, reference compound]",IC50,[1]; [24],40 nM
same,IC50,[1]; [25],40 nM
same,IC50,[2]; [26],3430 nM
same,IC50,[2]; [27],2890 nM
same,SW620 HCR,[2],1.2 fold
same,inhibition of cellular Erk1/2 phosphorylation,[3],potent inhibitor
same,inhibition of cellular HER1 phosphorylation,[4]; EGF-stimulated A431 cells,potent inhibitor
same,deaths,"[5]; q3dx6, 133 (20) and 56 (11) umol/kg/dose",1/7
same,"erbB1 autophosphorylation, cells not washed free of drug",[6],completely inhibited
same,IC50,[7],8 nM and 7.7 nM
same,IC50,[8],2.7 nM
same,half-life,"[9]; A431 tumour, intraperitoneal",9 h
same,AUC,"[9]; plasma, ip",18 µM·h
same,deaths,"[10]; q4dx6, 63% of single dose MTD",2/12
same,IC50,[11]; [28],81 nM
same,IC50,[11]; [29],141 nM
same,SKBR3 HCR,[11],0.6 fold
same,AUC(0-t),[12],12 µM·h
same,MTD,[13],100 µmol/kg
"Cn1c(C[N+](C)(C)C/C=C/C(=O)Nc2ccc3ncnc(Nc4cccc(Br)c4)c3c2)ccc1[N+](=O)[O-].[Br-] [Compound 19, (2E)-4-{[4-(3-bromoanilino)-6-quinazolinyl]amino}-N,N-dimethyl-N-[(1-methyl-5-nitro-1H-pyrrol-2-yl)methyl]-4-oxo-2-buten-1-ammonium bromide]",IC50,[14],0.4 nM
same,IC50,"[1]; read-out: Cellular Growth Inhibition IC50 A431 Anoxic, Table 3, first 4 hours of 24 hour exposure anoxic",201 nM
same,IC50,"[1]; read-out: Cellular Growth Inhibition IC50 A431 Oxic, Table 3, 24 hour exposure entirely oxic",2640 nM
same,SW620 Deact.,[2],46 fold
same,SW620 HCR,[2],5.6 fold
same,IC50,"[2]; 24 hour exposure entirely oxic, read-out: Cellular Growth Inhibition IC50 SW620 Oxic",156000 nM
same,IC50,"[2]; first 4 hours anoxic, read-out: Cellular Growth Inhibition IC50 SW620 Anoxic",28000 nM
same,IC50,"[4]; read-out: Cellular Enzyme Inhibition IC50 erbB1, Table 2, intact A431 cells, EGF-stimulated, average of two determinations",962 nM
same,Effector release/Prodrug loss,[15],0.73
same,Detection of MNA (methyl nitroaromatic),[15],No
same,% Loss of prodrug,[15],63%
same,% Release of effector,[15],46%
same,release of effector following 1-electron reduction,[15],released effector (compound 11) detected
same,IC50,[7],113 nM
same,IC50,[8],61 nM
same,tumour growth inhibition (TGI),[10],120%
same,SKBR3 Deact.,[11],78 fold
same,IC50,"[11]; 24 hour exposure entirely oxic, read-out: Cellular Growth Inhibition IC50 SKBR3 Oxic",6330 nM
same,IC50,"[11]; first 4 hours anoxic, read-out: Cellular Growth Inhibition IC50 SKBR3 Anoxic",483 nM
same,IC50,[16],451 nM
same,kfrag. (fragmentation rate constant upon 1-electron reduction),[17]; benzyl-type radical formation,90 ± 10 s⁻¹
same,E (1)/V (one-electron reduction potential),[17],−0.493 V
"Cn1cc([N+](=O)[O-])nc1C[N+](C)(C)C/C=C/C(=O)Nc1ccc2ncnc(Nc3cccc(Br)c3)c2c1 [Compound 21, (2E)-4-{[4-(3-bromoanilino)-6-quinazolinyl]amino}-N,N-dimethyl-N-[(1-methyl-4-nitro-1H-imidazol-2-yl)methyl]-4-oxo-2-buten-1-ammonium bromide]",IC50,[14],0.53 nM
same,IC50,[1]; [24],11000 nM
same,IC50,[1]; [25],13700 nM
same,A431 Deact. (fold reduction in oxic growth inhibition relative to parent kinase inhibitor),[1]; Table 3,277 fold
same,A431 HCR (Hypoxic Cytotoxicity Ratio),[1]; Table 3,1.3 fold
same,IC50,[2]; [26],423000 nM
same,IC50,[2]; [27],365000 nM
same,SW620 Deact.,[2],123 fold
same,SW620 HCR,[2],1.2 fold
same,IC50,[4],1190 nM
same,Deact. (fold reduction in cellular erbB1 inhibition relative to the parent kinase inhibitor),"[4]; Table 2, A431 cells",130 fold
same,Effector release/Prodrug loss,[15],0.30
same,Detection of MNA (methyl nitroaromatic),[15],No
same,% Loss of prodrug,[15],33%
same,% Release of effector,[15],10%
same,release of effector following 1-electron reduction,[15],not observed
same,IC50,[7],128 nM
same,IC50,[8],76 nM
same,tumour growth inhibition (TGI),[10],10%
same,IC50,[11]; [28],26900 nM
same,IC50,[11]; [29],30000 nM
same,SKBR3 Deact.,[11],332 fold
same,SKBR3 HCR,[11],0.9 fold
same,hypoxia-selective inhibition of p-erbB1,[18],no apparent hypoxia-selective inhibition
same,IC50,[16],531 nM
same,E (1)/V (one-electron reduction potential),[17],−0.468 V
"CN(C)C/C=C/C(=O)Nc1cc2c(Nc3ccc(F)c(Br)c3)ncnc2cn1 [Compound 161, (2E)-N-[4-(3-bromo-4-fluoroanilino)pyrido[3,4-d]pyrimidin-6-yl]-4-(dimethylamino)-2-butenamide]",IC50,"[1]; Homo sapiens, A-431, 4 h, read-out: Cellular Growth Inhibition IC50 A431 Anoxic",28 nM
same,IC50,[1]; [24],30 nM
same,A431 HCR,[1]; Table 9,1.6 fold
same,IC50,[4],5 nM
same,AUC,"[19]; female, NIH-III, mouse, plasma, ip, 31.6 umol/kg",8 µM·h
same,tumour AUC0-inf,"[19]; inhibitor 161 dosed directly at 31.6 umol/kg ip, A431 tumour",49 µmol·h/kg
same,deaths,"[5]; q3dx9, 100 (42) and 31.6 (161) μmol/kg/dose",1/7
same,"erbB1 autophosphorylation, cells not washed free of drug","[6]; 1 μM, 1 hour exposure, then EGF stimulation",completely inhibited
same,tumour growth inhibition (TGI),[20],100%
same,IC50,"[21]; 24 hour exposure oxic, read-out: Cellular Growth Inhibition IC50 H1975 Oxic",1260 nM
same,IC50,"[21]; first 4 hours anoxic, read-out: Cellular Growth Inhibition IC50 H1975 Anoxic",1400 nM
same,H1975 HCR,[21],0.9 fold
same,IC50,"[22]; 24 hour exposure oxic, read-out: Cellular Growth Inhibition IC50 SKOV3 Oxic",840 nM
same,IC50,"[22]; first 4 hours anoxic, read-out: Cellular Growth Inhibition IC50 SKOV3 Anoxic",1310 nM
same,SKOV3 HCR,[22],0.8 fold
same,IC50,[23],6 nM

# — patent US9073916B2, “Prodrug forms of kinase inhibitors and their use in therapy” (AUCKLAND UNISERVICES LIMITED, priority 2009, dated 2015)
